Consider two compounds from paper PMC5585294, “A potent series targeting the malarial cGMP-dependent protein kinase clears infection and blocks transmission” (Nature Communications, 2017).

A short description of data set [1]: Plasma levels in satellite groups of mice, P. berghei experiment. To be noted: BALB/c, mouse, in vivo; mice, oral 25 mg/kg, P. berghei experiment; read-out: plasma half-life (converted). In kind it is in vivo, mouse. From the text: Supplementary Figure 4. Plasma concentrations over time in rodent malaria models. […] Error bars show the standard deviation. (1 picture or pasted object on this page, not shown here)

The subject of a further data set is P. chabaudi (AS). As to the kind of experiment: Synchronous P. chabaudi AS model in BALB/c mice. In kind it is in vivo, Plasmodium chabaudi. The settings on record: single daily oral dose 50 mg/kg just prior to schizogony, 4 days. Here is the method:
Similar experiments were performed using P. chabaudi AS (from David Walliker, University of Edinburgh) with the following modifications. To allow dosing to be carried out more conveniently during the day, reversal of the light/dark exposure of mice for 2 weeks prior to the experiment was used to switch schizogony from midnight to noon each day. Mice were dosed at different time points in an attempt to have maximal coverage at the point of schizogony. All animal work protocols carried out at LSHTM were approved and licensed by the United Kingdom Home Office as governed by law under the Animals (Scientific Procedures) Act of 1986, in strict accordance with the Code of Practice Part 1 for the housing and care of animals (21 March 2005), available at http://www.homeoffice.gov.uk/science-research/animal-research/

The subject of another data set is P. falciparum 3D7. Description: Hypoxanthine incorporation growth inhibition assay, asexual blood stage, wild-type 3D7. In kind it is cell-based, Plasmodium falciparum. The settings on record: Plasmodium falciparum, 3D7, 72 h, read-out: EC50 WT. How it is done:
Hypoxanthine incorporation assays[36] were performed on P. falciparum asexual blood stage parasites (wild-type 3D7 or T618Q gatekeeper mutant) to determine EC50 values for test compounds. Mixed staged parasites (primarily rings) were added to 96 well plates containing compounds at concentrations of 50 μM–0.3 nM. […] Assays were carried out in triplicate at least twice.

The nature of data set [2]: Stability in human liver microsomes. The settings on record: % of compound remaining after 40 minutes' incubation. How it is done:
(§1) Compound mlm hlm mLogD PAMPA HepG2 name (%rem) (%rem) (nm/s) (IC50 µM)
(§2) Supplementary Table 2. Compound Properties. MLM, HLM, mLogD and PAMPA . mlm (%rem): % of compound remaining after 30 minutes’ incubation with mouse liver microsomes; hlm (%rem): % of compound remaining after 40 minutes’ incubation with human liver microsomes; mLogD: measured LogD at pH 7.4; PAMPA: parallel artificial membrane permeability assay; HepG2: Cytotoxicity assay using HepG2 cells; n.t.: not tested.
Background: Liver microsomes are vesicles of endoplasmic reticulum, rich in cytochrome P450 enzymes.

The subject of data set [3] is P. falciparum (NF54) gametocytes. Description: Standard membrane feeding assay (SMFA), gametocytes fed to Anopheles stephensi. In kind it is cell-based, Plasmodium falciparum. The settings on record: Plasmodium falciparum, NF54; gametocytes pre-incubated 24 h, oocysts counted day 7 post-feed; read-out: IC50 for reduction of the intensity of infection (oocysts). How it is done:
Mature P. falciparum (NF54) gametocytes (14 day culture, 0.3–0.5% gametocytes, 2% haematocrit) were obtained from an automated tipper system and incubated with compound for 24 h as previously described. Anopheles stephensi (Sind-Kasur Nijmegen strain[39] were reared at 30 °C and 70–80% humidity, while exposed to a 12/12 h day/night cycle. On the day of feeding, the gametocyte culture was adjusted to 50% hematocrit with human red blood cells and human serum and fed to 3–5 day old mosquitoes using a glass membrane mini-feeder system containing 0.35 ml of the P. falciparum culture/compound mix[40]. Unfed and partially fed mosquitoes were removed after feeding and blood fed females were maintained at 26 °C and 70–80% humidity. Up to 20 surviving mosquitoes were collected on day 7 post-infection and oocysts were visualized using a 1% merchurochrome solution and quantified by microscopy. IC50 values were determined by logistic regression using Maximum Likelihood Estimation to find best fit[41].

For another data set, the target named is PfPKG T618Q (Plasmodium falciparum, UniProt Q8I719, T618Q). As to the kind of experiment: Microfluidic mobility shift kinase assay, recombinant PfPKG T618Q gatekeeper mutant.
PfPKG T618Q, sequence (Q8I719 whole entry T618Q): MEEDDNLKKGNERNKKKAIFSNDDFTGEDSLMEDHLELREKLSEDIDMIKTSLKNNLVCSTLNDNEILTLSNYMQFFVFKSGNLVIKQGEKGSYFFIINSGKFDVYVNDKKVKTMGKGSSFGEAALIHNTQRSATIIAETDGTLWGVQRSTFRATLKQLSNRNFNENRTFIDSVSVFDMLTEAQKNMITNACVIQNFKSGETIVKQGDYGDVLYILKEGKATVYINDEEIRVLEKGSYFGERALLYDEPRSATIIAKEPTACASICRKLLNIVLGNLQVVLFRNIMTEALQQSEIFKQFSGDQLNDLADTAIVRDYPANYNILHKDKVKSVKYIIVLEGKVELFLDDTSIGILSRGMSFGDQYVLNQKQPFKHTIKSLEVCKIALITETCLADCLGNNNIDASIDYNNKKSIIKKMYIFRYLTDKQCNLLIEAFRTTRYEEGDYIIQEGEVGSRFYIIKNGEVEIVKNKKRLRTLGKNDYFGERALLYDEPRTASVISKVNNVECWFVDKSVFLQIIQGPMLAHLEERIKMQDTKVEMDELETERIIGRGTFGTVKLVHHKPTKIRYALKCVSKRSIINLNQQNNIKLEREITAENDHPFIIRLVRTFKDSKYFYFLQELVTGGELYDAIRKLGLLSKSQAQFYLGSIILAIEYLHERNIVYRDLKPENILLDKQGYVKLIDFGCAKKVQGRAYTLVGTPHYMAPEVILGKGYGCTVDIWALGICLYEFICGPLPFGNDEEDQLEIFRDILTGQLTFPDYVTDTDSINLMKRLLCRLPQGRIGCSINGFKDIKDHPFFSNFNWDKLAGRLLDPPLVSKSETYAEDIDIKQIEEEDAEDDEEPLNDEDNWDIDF
The nature of data set [4]: Cytotoxicity assay using HepG2 cells. The settings on record: human. How it is done: as §1, §2
Data set [5] has as its system P. falciparum gatekeeper mutant (T618Q) stage V gametocytes. As to the kind of experiment: Gametogenesis (rounding up) assay, T618Q stage V gametocytes. To be noted: 30 µM xanthurenic acid; 2 µM ML1, 1 µM ML10. In kind it is cell-based, Plasmodium falciparum.
Another data set in a line: physchem. To be noted: pH 7.4. Here is the method:
as §1, §2

Another data set deals with PfPKG (Plasmodium falciparum, UniProt Q8I719). Description: Microfluidic mobility shift kinase assay, recombinant PfPKG wild type.
PfPKG, sequence (Q8I719 whole entry): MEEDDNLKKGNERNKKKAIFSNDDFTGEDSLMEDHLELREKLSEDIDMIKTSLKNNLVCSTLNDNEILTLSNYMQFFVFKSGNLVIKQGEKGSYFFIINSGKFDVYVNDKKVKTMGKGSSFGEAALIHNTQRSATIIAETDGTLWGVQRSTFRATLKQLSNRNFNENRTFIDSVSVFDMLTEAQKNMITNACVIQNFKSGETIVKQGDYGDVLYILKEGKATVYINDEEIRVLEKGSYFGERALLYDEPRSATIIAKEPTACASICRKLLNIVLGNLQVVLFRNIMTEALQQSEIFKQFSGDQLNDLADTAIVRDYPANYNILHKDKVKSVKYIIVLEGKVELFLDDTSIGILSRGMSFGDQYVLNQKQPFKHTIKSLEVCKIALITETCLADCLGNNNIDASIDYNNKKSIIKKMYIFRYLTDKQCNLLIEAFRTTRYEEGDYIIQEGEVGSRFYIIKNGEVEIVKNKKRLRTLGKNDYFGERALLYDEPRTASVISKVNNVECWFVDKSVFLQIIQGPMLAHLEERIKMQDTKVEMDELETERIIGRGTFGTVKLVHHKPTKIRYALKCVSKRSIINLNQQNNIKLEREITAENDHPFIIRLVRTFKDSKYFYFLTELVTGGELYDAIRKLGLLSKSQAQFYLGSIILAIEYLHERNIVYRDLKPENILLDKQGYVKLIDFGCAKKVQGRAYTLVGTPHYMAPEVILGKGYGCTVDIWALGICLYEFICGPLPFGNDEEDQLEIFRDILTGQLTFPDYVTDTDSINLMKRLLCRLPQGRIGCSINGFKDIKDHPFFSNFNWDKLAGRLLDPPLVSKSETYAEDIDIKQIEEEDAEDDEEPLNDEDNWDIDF
The test system of data set [6] is P. falciparum wild-type (3D7) stage V gametocytes. Description: Gametogenesis (rounding up) assay, wild-type 3D7 stage V gametocytes. It counts as cell-based, Plasmodium falciparum. The settings on record: 30 µM xanthurenic acid; 2 µM ML1, 1 µM ML10. How it is done:
Plasmodium falciparum clone 3D7A (obtained from Dr Lisa Ranford-Cartwright, University of Edinburgh) gametocytes were initiated and cultured using an adapted version of the traditional Trager and Jenson method modified by Fivelman and colleagues. Stage V gametocytes were purified on a 60% Percoll gradient. Purified parasite samples were diluted in warm complete media (RPMI-1640 (Sigma), 0.5% Albumax (Invitrogen), 0.03% L-glutamine (Sigma), 0.2% Glucose (Sigma), 1× hypoxanthine (Sigma)), to a volume that would allow a final volume of […] per sample and a haematocrit of <10%. […] Control tubes containing DMSO only were kept at 37 °C. All other samples were incubated at room temperature for 30 min immediately after addition of test compounds. Samples were then washed once in warm RPMI followed by removal of the supernatant to leave a final haematocrit of roughly 50%. Samples were smeared on glass slides and fixed in 100% methanol (VWR) then stained for 15 min in 10% Giemsa R66 (VWR) and observed by light microscopy. The number of gametocytes at stage V and rounded up per 900 erythrocytes were counted three consecutive times to produce an average count. Numbers of parasites rounded up were compared to the no drug control.

Data set [7] has as its system P. falciparum lab isolate Dd2. Description: In vitro selection of resistant parasites. It counts as cell-based, Plasmodium falciparum. To be noted: 3× EC50, 10^9 parasites, up to Day 60. How it is done: P. falciparum lab isolate Dd2 (from stocks held at LSHTM) was used for this experiment and the control compound used was atovaquone. Parasites were plated in triplicate at 10^9 parasites/well and maintained until parasites were observed microscopically (using Giemsa-stained blood films) or until Day 60 whichever was the soonest. […]. Gametocytes were present initially but were absent from Day 11.

Method for PfPKG T618Q: Full length PfPKG (NCBI accession code XP_001348520) with native codon usage was cloned into the pTrcHisC plasmid (Life Technologies) that includes an N-terminal His-tag as described previously[8]. […] Recombinant proteins were generated and purified using a protocol based on that described previously[8]. […] 500 ml cultures in LB Rich Broth (containing 50 μg/ml carbenicillin and 34 μg/ml chloramphenicol) were grown in a shaking incubator at 37 °C until reaching an optical density (O.D.) of 0.6–0.7. The temperature was reduced to 16 °C before induction of expression with 1 mM IPTG. Incubation at 16 °C was continued overnight.
The cultures were harvested by centrifugation at 4000×g at 4 °C for 30 min, the supernatant removed and the pellet stored at −80 °C for in excess of 1 h. The PKGs were purified via the histidine tag on HiTrap TALON (cobalt) columns (GE Healthcare) connected to an AKTA-FPLC as per the manufacturer's instruction. Fractions were analyzed by SDS-PAGE and the main peak concentrated on 10 kDa MWCO concentrators (Amicon). Purified proteins were stored in 50% glycerol at −80 °C in single use aliquots. The final buffer composition of the purified product was: 50 mM Tris/HCl pH 7.5, 0.1 mM EGTA, 150 mM NaCl, 0.1% β-mercaptoethanol, 50% glycerol, 0.03% Brij-35, 1 mM benzamidine and 0.2 mM PMSF.
IC50 values were determined for test compounds using a microfluidic mobility shift assay. Briefly, compounds were prepared over a 10-well ½ log dilution series in dimethyl sulfoxide (DMSO) in duplicate in 50 μl volumes using 384-well polypropylene U-bottomed plates (Thermo Scientific, UK). The plates contained positive/no inhibitor (DMSO only) and negative (no enzyme) controls in columns 1, 2, and 23, 24. […] Samples were pre-incubated at room temperature for 30 min and reactions were initiated by addition of 25 μl ATP mix (10 mM MgCl2 and ATP, at KM of the enzyme under test [20 µM PfPKG and 90 µM PfPKG T618Q], in water). Positive controls were complete reaction mixtures with 10% DMSO and negative controls were reaction mixtures with 10% DMSO but lacking enzyme. Reactions were allowed to proceed for 30 mins at room temperature, corresponding to conversion of approximately 10% of the substrate in the DMSO controls. Reactions were terminated by addition of 50 µl stop solution (25 mM EDTA in water). Samples were analyzed by electrophoretic separation of substrate and product peaks and fluorescence detection using a Caliper Lab Chip EZ reader. (Perkin Elmer, Waltham MA) with 0.2 s sip time, downstream voltage 500 V, upstream voltage 1950 V and pressure 0.5 to 1.5 psi. Substrate and product peak heights were measured and the ratio of the product peak height divided by the sum of the product and substrate peaks were determined using EZ reader software (version 3.0.265.0) to obtain percentage conversion (P) values. […] Liquid handling stages were conducted on a Biomek robotic liquid handler (Beckman Coulter).

One may read the half-life as how long it takes for the measured level to halve. In general, EC50 refers to the concentration at which the effect is half-maximal. In general, IC50 refers to the concentration that gives 50% inhibition. Consider `CN(C)Cc1ccn2c(-c3ccnc(N)n3)c(-c3ccc(F)cc3)nc2c1` [ML1, 4-[7-[(dimethylamino)methyl]-2-(4-fluorophenyl)imidazo[1,2-a]pyridine-3-yl]pyrimidin-2-amine, reference compound], for which the half-life in [1] was 1.1 h. Besides, in the data set on P. chabaudi (AS), the “reduction in blood stage parasitaemia” value came out at 67.9%. Moreover, the concentration for a half-maximal effect (EC50) with P. falciparum 3D7 worked out at 0.395 µM. Besides, in [2], the “hlm (%rem)” value is 70%. Also, the IC50 was 0.507 µM in [3], 8.44 µM on PfPKG T618Q, over 20 µM in data set [4] and 0.0031 µM on PfPKG. The “rounding up of T618Q gametocytes” value in [5] is “insensitive”. For the same compound, in the data set “physchem”, the mLogD stood at 2.4. Moreover, the “rounding up of wild-type gametocytes” value in data set [6] was “blocked rounding up”.

Take `O=C1C(O)=C([C@H]2CC[C@H](c3ccc(Cl)cc3)CC2)C(=O)c2ccccc21` [atovaquone]: in data set [7], the “selection of resistant parasites” value is given as “readily selected”.
